Laboratory results taken from patent US11407737B2, “Inhibitors of RAF kinases” (Kinnate Biopharma Inc., priority 2020, dated 2022).
pIC50: −log10 of the molar value.

These molecules were tested against human RAF1 (Homo sapiens (Human), UniProt P04049) (assay: Protein kinase assay (radiometric 33P-ATP, MEK1 (K97R) substrate), RAF-1). Conditions: not given.
Type: biochemical
Description: Example 1: Kinase Assay Protocol
Assay platform was used to measure kinase/inhibitor interactions as described previously (Anastassiadis et al., 2011). In brief, for each reaction, kinase and substrate were mixed in a buffer containing 20 mM HEPES (pH 7.5), 10 mM MgCl2, 1 mM EGTA, 0.02% Brij35, 0.02 mg/mL BSA, 0.1 mM Na3VO4, 2 mM DTT, and 1% DMSO. All compounds were solubilized in DMSO. Compounds were then added to each reaction mixture via acoustic dispense using an ECHO 550 nanoliter dispenser. For human RAF1 testing, human MEK1 (K97R) was used as a substrate at a concentration of 3 micromolar, with a final ATP concentration of 10 micromolar. For human BRAF testing, human MEK1 (K97R) was used as a substrate at 1 micromolar concentration, with a final ATP concentration of 25 micromolar. […] After a 20-min incubation, ATP (Sigma-Aldrich, St. Louis, Mo. 63178) and [g33P] ATP (specific activity 10 microCi/microliter) purchased at PerkinElmer (Boston, Mass., 02118 Cat #BLU 003H250UC) were added at a final total concentration of […]. Reactions were carried out at room temperature for 2 hr and spotted onto P81 ion exchange cellulose chromatography paper (Reaction Biology). Filter paper was washed in 0.75% phosphoric acid to remove unincorporated ATP. The percent remaining kinase activity relative to a vehicle-containing (DMSO) kinase reaction was calculated for each kinase/inhibitor pair. IC50 values were calculated using Prism 5 (GraphPad).

Sequence of human RAF1 (P04049 whole entry): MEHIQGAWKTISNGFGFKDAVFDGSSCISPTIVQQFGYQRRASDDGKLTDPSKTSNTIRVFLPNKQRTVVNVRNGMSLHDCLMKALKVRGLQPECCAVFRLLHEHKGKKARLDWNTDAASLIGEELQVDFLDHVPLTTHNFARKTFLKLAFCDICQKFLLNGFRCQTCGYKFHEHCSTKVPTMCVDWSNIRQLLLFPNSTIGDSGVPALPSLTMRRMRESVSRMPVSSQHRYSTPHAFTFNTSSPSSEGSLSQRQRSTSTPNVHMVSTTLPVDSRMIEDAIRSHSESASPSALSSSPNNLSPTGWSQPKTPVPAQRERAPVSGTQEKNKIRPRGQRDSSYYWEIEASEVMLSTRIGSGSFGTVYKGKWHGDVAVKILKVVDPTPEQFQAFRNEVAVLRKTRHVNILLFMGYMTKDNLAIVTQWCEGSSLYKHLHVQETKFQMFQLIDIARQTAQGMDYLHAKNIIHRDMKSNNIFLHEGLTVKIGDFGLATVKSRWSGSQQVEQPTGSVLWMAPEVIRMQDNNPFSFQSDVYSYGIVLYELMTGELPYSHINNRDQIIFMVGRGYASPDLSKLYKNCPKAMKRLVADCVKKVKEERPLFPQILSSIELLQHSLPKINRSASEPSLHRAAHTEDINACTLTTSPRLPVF

SMILES	pIC50
Cc1ccc(NC(=O)N2CC[C@@H](CC(F)(F)F)C2)cc1-c1cc(C(=O)NC[C@@H](C)O)nc(N2CCOCC2)c1 [Example 5, N-[(2R)-2-hydroxypropyl]-4-[2-methyl-5-[(3S)-3-(2,2,2-trifluoroethyl)pyrrolidine-1-carbonylamino]phenyl]-6-(morpholin-4-yl)pyridine-2-carboxamide]	8.00 to 9.00

Same assay, conditions: human MEK1 (K97R) substrate 3 micromolar, ATP 10 micromolar; 10-dose, 3-fold serial dilution starting at 10 micromolar; read-out: RAF-1 IC50

SMILES	pIC50
Cc1ccc(NC(=O)N2CC[C@@H](CC(F)(F)F)C2)cc1-c1cc(-c2cnn(C)c2)nc(N2CCOCC2)c1 [Example 22, (3S)—N-[4-methyl-3-[2-(1-methylpyrazol-4-yl)-6-(morpholin-4-yl)pyridin-4-yl]phenyl]-3-(2,2,2-trifluoroethyl)pyrrolidine-1-carboxamide]	> 9.00
CCc1cc(-c2cc(NC(=O)N3CC[C@@H](CC(F)(F)F)C3)c(F)cc2C)cc(N2CCOCC2)n1 [Example 72, (3S)—N-{5-[2-ethyl-6-(morpholin-4-yl)pyridin-4-yl]-2-fluoro-4-methylphenyl}-3-(2,2,2-trifluoroethyl)pyrrolidine-1-carboxamide]	> 9.00
Cc1cc(F)c(NC(=O)N2CC[C@@H](CC(F)(F)F)C2)cc1-c1cc(-c2cnn(C)c2)nc(N2CCOCC2)c1 [Example 74, (3S)—N-{2-fluoro-4-methyl-5-[2-(1-methylpyrazol-4-yl)-6-(morpholin-4-yl)pyridin-4-yl]phenyl}-3-(2,2,2-trifluoroethyl)pyrrolidine-1-carboxamide]	> 9.00
Cc1ccc(NC(=O)N2CC[C@@H](CC(F)(F)F)C2)cc1-c1cc(-c2ccnc(C(F)F)c2)nc(N2CCOCC2)c1 [Example 46, (3S)—N-[3-[2′-(difluoromethyl)-6-(morpholin-4-yl)-[2,4′-bipyridin]-4-yl]-4-methylphenyl]-3-(2,2,2-trifluoroethyl)pyrrolidine-1-carboxamide]	8.00 to 9.00
Cc1ccc(NC(=O)N2CC[C@@H](CC(F)(F)F)C2)cc1-c1cc(C(=O)N2CC(C)(O)C2)nc(N2CCOCC2)c1 [Example 21, (3S)—N-[3-[2-(3-hydroxy-3-methylazetidine-1-carbonyl)-6-(morpholin-4-yl)pyridin-4-yl]-4-methylphenyl]-3-(2,2,2-trifluoroethyl)pyrrolidine-1-carboxamide]	> 9.00
Cc1cc(F)c(NC(=O)N2CC[C@@H](CC(F)(F)F)C2)cc1-c1cc(C2CC2)nc(N2CCOCC2)c1 [Example 71, (3S)—N-{5-[2-cyclopropyl-6-(morpholin-4-yl)pyridin-4-yl]-2-fluoro-4-methylphenyl}-3-(2,2,2-trifluoroethyl)pyrrolidine-1-carboxamide]	> 9.00
Cc1ccc(NC(=O)N2CC[C@@H](CC(F)(F)F)C2)cc1-c1cc(-c2ccnn2CCO)nc(N2CCOCC2)c1 [Example 59, (3S)—N-(3-{2-[2-(2-hydroxyethyl)pyrazol-3-yl]-6-(morpholin-4-yl)pyridin-4-yl}-4-methylphenyl)-3-(2,2,2-trifluoroethyl)pyrrolidine-1-carboxamide]	8.00 to 9.00
Cc1ccc(NC(=O)N2CC[C@@H](CC(F)(F)F)C2)cc1-c1cc(-c2ccnn2C)nc(N2CCOCC2)c1 [Example 49, (3S)—N-[4-methyl-3-[2-(2-methylpyrazol-3-yl)-6-(morpholin-4-yl)pyridin-4-yl]phenyl]-3-(2,2,2-trifluoroethyl)pyrrolidine-1-carboxamide]	> 9.00
Cc1cc(F)c(NC(=O)N2CC[C@H](C(F)(F)F)C2)cc1-c1cc(-c2cnn(C)c2)nc(N2CCOCC2)c1 [Example 76, (3S)—N-{2-fluoro-4-methyl-5-[2-(1-methylpyrazol-4-yl)-6-(morpholin-4-yl)pyridin-4-yl]phenyl}-3-(trifluoromethyl)pyrrolidine-1-carboxamide]	> 9.00
Cc1ccc(NC(=O)N2CC[C@@H](CC(F)(F)F)C2)cc1-c1cc(-c2ccn(C)n2)nc(N2CCOCC2)c1 [Example 36, (3S)—N-[4-methyl-3-[2-(1-methylpyrazol-3-yl)-6-(morpholin-4-yl)pyridin-4-yl]phenyl]-3-(2,2,2-trifluoroethyl)pyrrolidine-1-carboxamide]	> 9.00
Cc1ccc(NC(=O)N2CC[C@@H](CC(F)(F)F)C2)cc1-c1cc(-c2cnn(CCO)c2)nc(N2CCOCC2)c1 [Example 58, (3S)—N-(3-(2-(1-(2-hydroxyethyl)-1H-pyrazol-4-yl)-6-morpholinopyridin-4-yl)-4-methylphenyl)-3-(2,2,2-trifluoroethyl)pyrrolidine-1-carboxamide]	8.00 to 9.00
Cc1cc(-c2cc(NC(=O)N3CC[C@@H](CC(F)(F)F)C3)c(F)cc2C)cc(N2CCOCC2)n1 [Example 70, (3S)—N-{2-fluoro-4-methyl-5-[2-methyl-6-(morpholin-4-yl)pyridin-4-yl]phenyl}-3-(2,2,2-trifluoroethyl)pyrrolidine-1-carboxamide]	> 9.00
Cc1cc(F)c(NC(=O)N2CC[C@H](C(C)(C)C)C2)cc1-c1cc(-c2cnn(C)c2)nc(N2CCOCC2)c1 [Example 83, (3R)-3-tert-butyl-N-{2-fluoro-4-methyl-5-[2-(1-methylpyrazol-4-yl)-6-(morpholin-4-yl)pyridin-4-yl]phenyl}pyrrolidine-1-carboxamide]	8.00 to 9.00
Cc1ccc(NC(=O)N2CC[C@@H](CC(F)(F)F)C2)cc1-c1cc(C(=O)N(C)CCO)nc(N2CCOCC2)c1 [Example 18, N-(2-hydroxyethyl)-N-methyl-4-[2-methyl-5-[(3S)-3-(2,2,2-trifluoroethyl)pyrrolidine-1-carbonylamino]phenyl]-6-(morpholin-4-yl)pyridine-2-carboxamide]	> 9.00
COc1cc(-c2cc(-c3cc(NC(=O)N4CC[C@@H](CC(F)(F)F)C4)ccc3C)cc(N3CCOCC3)n2)ccn1 [Example 25, (3S)—N-[3-[2-methoxy-6-(morpholin-4-yl)-[2,4-bipyridin]-4-yl]-4-methylphenyl]-3-(2,2,2-trifluoroethyl)pyrrolidine-1-carboxamide]	> 9.00
Cc1ccc(NC(=O)N2CC[C@@H](CC(F)(F)F)C2)cc1-c1cc(-c2cnn(C(F)F)c2)nc(N2CCOCC2)c1 [Example 41, (3S)—N-(3-[2-[1-(difluoromethyl)pyrazol-4-yl]-6-(morpholin-4-yl)pyridin-4-yl]-4-methylphenyl)-3-(2,2,2-trifluoroethyl)pyrrolidine-1-carboxamide]	8.00 to 9.00

The next lines start with the values.

pIC50	SMILES
8.00 to 9.00	Cc1ccc(NC(=O)N2CC[C@@H](CC(F)(F)F)C2)cc1-c1cc(C#CC(C)(C)O)nc(N2CCOCC2)c1 [Example 10, (3S)—N-[3-[2-(3-hydroxy-3-methylbut-1-yn-1-yl)-6-(morpholin-4-yl)pyridin-4-yl]-4-methylphenyl]-3-(2,2,2-trifluoroethyl)pyrrolidine-1-carboxamide]
8.00 to 9.00	Cc1ccc(NC(=O)N2CC[C@@H](CC(F)(F)F)C2)cc1-c1cc(C#CC(C)N)nc(N2CCOCC2)c1 (stereo partly drawn) [Example 55, (3S)—N-{3-[2-(3-aminobut-1-yn-1-yl)-6-(morpholin-4-yl)pyridin-4-yl]-4-methylphenyl}-3-(2,2,2-trifluoroethyl)pyrrolidine-1-carboxamide]
> 9.00	Cc1ccc(NC(=O)N2CC[C@@H](CC(F)(F)F)C2)cc1-c1cc(-c2cnn(C)c2C)nc(N2CCOCC2)c1 [Example 48, (3S)—N-[3-[2-(1,5-dimethylpyrazol-4-yl)-6-(morpholin-4-yl)pyridin-4-yl]-4-methylphenyl]-3-(2,2,2-trifluoroethyl)pyrrolidine-1-carboxamide]
8.00 to 9.00	Cc1ccc(NC(=O)N2CC[C@@H](CC(F)(F)F)C2)cc1-c1cc(-c2c[nH]nc2C)nc(N2CCOCC2)c1 [Example 47, (3S)—N-[4-methyl-3-[2-(3-methyl-1H-pyrazol-4-yl)-6-(morpholin-4-yl)pyridin-4-yl]phenyl]-3-(2,2,2-trifluoroethyl)pyrrolidine-1-carboxamide]
> 9.00	Cc1ccc(NC(=O)N2CC[C@@H](CC(F)(F)F)C2)cc1-c1cc(CC[C@@H](C)O)nc(N2CCOCC2)c1 [Example 12, (3S)—N-(3-[2-[(3R)-3-hydroxybutyl]-6-(morpholin-4-yl)pyridin-4-yl]-4-methylphenyl)-3-(2,2,2-trifluoroethyl)pyrrolidine-1-carboxamide]
> 9.00	Cc1ccc(NC(=O)N2CC[C@@H](CC(F)(F)F)C2)cc1-c1cc(-c2cnc(O)o2)nc(N2CCOCC2)c1 [Example 26, (3S)—N-[3-[2-(2-hydroxy-1,3-oxazol-5-yl)-6-(morpholin-4-yl)pyridin-4-yl]-4-methylphenyl]-3-(2,2,2-trifluoroethyl)pyrrolidine-1-carboxamide]
> 9.00	Cc1ccc(NC(=O)N2CC[C@@H](CC(F)(F)F)C2)cc1-c1cc(/C=C/CO)nc(N2CCOCC2)c1 [Example 23, (3S)—N-(3-[2-[(1E)-3-hydroxyprop-1-en-1-yl]-6-(morpholin-4-yl)pyridin-4-yl]-4-methylphenyl)-3-(2,2,2-trifluoroethyl)pyrrolidine-1-carboxamide]
8.00 to 9.00	CNC(=O)c1cc(-c2cc(NC(=O)N3CC[C@@H](CC(F)(F)F)C3)ccc2C)cc(N2CCOCC2)n1 [Example 3, N-methyl-4-[2-methyl-5-[(3S)-3-(2,2,2-trifluoroethyl)pyrrolidine-1-carbonylamino]phenyl]-6-(morpholin-4-yl)pyridine-2-carboxamide]
